{"source": "patent US20250320213A1", "about": "“Nitrogen-Containing Heterocyclic Compounds” (Pfizer Inc., priority 2024, published 2025)", "key": {"[1]": {"biological_target": "T1, STAT6 (Homo sapiens, UniProt P42226)", "T1 construct": "stably transfected HaCaT keratinocyte cell line, which expresses NanoLuc luciferase reporter gene under the transcriptional control of the STAT6 responsive promoter; endogenous in cells; host or cells: HaCaT keratinocyte reporter cell line (stably transfected with a NanoLuc reporter)", "T1 sequence (P42226 1-847)": "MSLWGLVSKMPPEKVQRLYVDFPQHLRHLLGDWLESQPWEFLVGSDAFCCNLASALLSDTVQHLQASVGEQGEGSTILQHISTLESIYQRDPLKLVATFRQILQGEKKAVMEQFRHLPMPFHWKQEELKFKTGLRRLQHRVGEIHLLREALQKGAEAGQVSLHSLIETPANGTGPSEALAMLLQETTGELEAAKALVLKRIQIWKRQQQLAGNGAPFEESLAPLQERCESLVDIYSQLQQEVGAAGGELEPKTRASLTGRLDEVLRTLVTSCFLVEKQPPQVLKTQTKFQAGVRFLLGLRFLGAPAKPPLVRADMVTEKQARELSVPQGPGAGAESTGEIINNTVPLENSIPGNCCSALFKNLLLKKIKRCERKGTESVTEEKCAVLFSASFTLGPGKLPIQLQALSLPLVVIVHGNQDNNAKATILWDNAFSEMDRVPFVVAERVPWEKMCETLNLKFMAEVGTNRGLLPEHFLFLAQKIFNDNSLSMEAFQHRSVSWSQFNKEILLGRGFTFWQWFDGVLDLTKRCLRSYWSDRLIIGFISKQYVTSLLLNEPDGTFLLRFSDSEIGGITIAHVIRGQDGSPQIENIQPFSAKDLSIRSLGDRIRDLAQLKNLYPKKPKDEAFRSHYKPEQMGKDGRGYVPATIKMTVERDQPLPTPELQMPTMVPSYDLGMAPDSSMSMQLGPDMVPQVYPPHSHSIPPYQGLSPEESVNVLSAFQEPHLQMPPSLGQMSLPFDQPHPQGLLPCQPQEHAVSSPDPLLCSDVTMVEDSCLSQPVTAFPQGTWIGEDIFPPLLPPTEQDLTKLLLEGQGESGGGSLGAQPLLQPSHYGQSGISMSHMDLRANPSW", "assay": "STAT6 Reporter Luciferase Assay (IL-13 stimulated HaCaT keratinocyte NanoLuc reporter cells)", "assay_type": "cell-based", "conditions": "read-out: Reporter EC50", "procedure,_shortened": "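HaCaT cells stably carrying a NanoLuc reporter driven by the STAT6-responsive IL-13Ra2 promoter were preincubated with compounds for 2 h at 37 °C in 2% FBS medium. Cells were then stimulated with 0.12 nM IL-13 for 4 h, and luminescence was read after Nano-Glo substrate. Compounds ran as 11-point 4-fold dilutions in duplicate.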"}, "[2]": {"tested_on": "CCL17 secretion in peripheral human whole blood", "assay": "Human Whole Blood (HWB) CCL17 TR-FRET Assay (IL-13 stimulated CCL17 secretion)", "assay_type": "cell-based", "procedure,_shortened": "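Compounds are titrated (11 points, 3-fold, duplicate) into fresh heparinized human whole blood and held 2 h at 37 °C before IL-13 challenge (10 ng/mL final). After 48 h at 37 °C, serum CCL17 is measured by TR-FRET sandwich assay and IC50 values are calculated.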"}, "[3]": {"conditions": "STAT6 NanoLuc luciferase reporter, IL-13 stimulated HaCaT keratinocyte cells"}, "[4]": {"conditions": "Homo sapiens, 48 h, inhibition of CCL17 secretion in human whole blood, 10 ng/mL IL13, 48 hours"}, "[5]": {"conditions": "IL-13 stimulated HaCaT STAT6 NanoLuc reporter cells"}, "[6]": {"conditions": "Homo sapiens, 48 h, human whole blood, IL-13 stimulated"}, "[7]": {"conditions": "Homo sapiens, 48 h, human whole blood, IL-13 10 ng/mL"}, "[8]": {"conditions": "Homo sapiens, 48 h, human whole blood, 10 ng/mL IL13, 48 hours"}, "[9]": {"conditions": "human whole blood, IL-13 stimulated, 48 hours"}}, "note": "Read-outs that look alike come from different tables or passages of the source.", "data": [{"smiles": "CC(C)n1nc(C(=O)NCc2ccc(NC(=O)N3CCCCC3)cc2)c2c1CCN(c1ccc(C(=O)N(C)C)cn1)C2", "note": "[Example 144, 5-(5-(dimethylcarbamoyl)pyridin-2-yl)-1-isopropyl-N-(4-(piperidine-1-carboxamido)benzyl)-4,5,6,7-tetrahydro-1H-pyrazolo[4,3-c]pyridine-3-carboxamide]", "values": [{"measurement": "EC50", "setting": "[1]; [3]", "result": 7, "unit": "nM"}, {"measurement": "IC50", "setting": "[2]; [4]", "result": 292, "unit": "nM"}]}, {"smiles": "CC(C)n1nc(C(=O)NCc2ccc(NC(=O)N3CCC(C(F)F)CC3)cc2)c2c1CCN(c1ccc(C(=O)N(C)C)cn1)C2", "note": "[Example 161, N-(4-(4-(difluoromethyl)piperidine-1-carboxamido)benzyl)-5-(5-(dimethylcarbamoyl)pyridin-2-yl)-1-isopropyl-4,5,6,7-tetrahydro-1H-pyrazolo[4,3-c]pyridine-3-carboxamide]", "values": [{"measurement": "EC50", "setting": "[1]; [3]", "result": 7, "unit": "nM"}, {"measurement": "IC50", "setting": "[2]; [4]", "result": 199, "unit": "nM"}]}, {"smiles": "CCn1nc(C(=O)NCc2ccc(C(=O)NC)cc2)c2c1C(C(F)(F)F)CN(c1ccc(C(=O)N(C)C)cn1)C2", "note": "(racemic) [Example 463, rac-(R)-5-(5-(dimethylcarbamoyl)pyridin-2-yl)-1-ethyl-N-(4-(methylcarbamoyl)benzyl)-7-(trifluoromethyl)-4,5,6,7-tetrahydro-1H-pyrazolo[4,3-c]pyridine-3-carboxamide]", "values": [{"measurement": "EC50", "setting": "[1]; [5]", "result": 2.7, "unit": "nM"}, {"measurement": "IC50", "setting": "[2]; [6]", "result": 23, "unit": "nM"}]}, {"smiles": "Cc1coc(-c2ccc(CNC(=O)c3nn(C(C)C)c4c3CN(c3ccc(C(=O)N(C)C)cc3)C[C@@H]4C)cc2)n1", "note": "[Example 723, (S)-5-(4-(dimethylcarbamoyl)phenyl)-1-isopropyl-7-methyl-N-(4-(4-methyloxazol-2-yl)benzyl)-4,5,6,7-tetrahydro-1H-pyrazolo[4,3-c]pyridine-3-carboxamide]", "values": [{"measurement": "EC50", "setting": "[1]; [5]", "result": 128, "unit": "nM"}, {"measurement": "IC50", "setting": "[2]; [7]", "result": 665, "unit": "nM"}]}, {"smiles": "CN(C)C(=O)Nc1ccc(CNC(=O)c2noc3c2CN(c2ccc(C(=O)N(C)C)cn2)CC3)cc1", "note": "[Example 28, 5-(5-(dimethylcarbamoyl)pyridin-2-yl)-N-(4-(3,3-dimethylureido)benzyl)-4,5,6,7-tetrahydroisoxazolo[4,5-c]pyridine-3-carboxamide]", "values": [{"measurement": "EC50", "setting": "[1]; [3]", "result": 46, "unit": "nM"}, {"measurement": "IC50", "setting": "[2]; [4]", "result": 313, "unit": "nM"}]}, {"smiles": "CC(C)n1nc(C(=O)NCc2ccc(NC(=O)N(C)C)cc2)c2c1CCN(c1ncc(C(=O)N(C)C)cn1)[C@@H]2C", "note": "(single isomer, unassigned) [Example 508]", "values": [{"measurement": "EC50", "setting": "[1]; [5]", "result": 7, "unit": "nM"}, {"measurement": "IC50", "setting": "[2]; [6]", "result": 20, "unit": "nM"}]}, {"smiles": "CC(C)n1nc(C(=O)NCc2ccc(NC(=O)N3CCNCC3)c(Cl)c2)c2c1[C@@H](C)CN(c1ccc(C(=O)N(C)C)cc1)C2", "note": "[Example 596, (S)-N-(3-chloro-4-(piperazine-1-carboxamido)benzyl)-5-(4-(dimethylcarbamoyl)phenyl)-1-isopropyl-7-methyl-4,5,6,7-tetrahydro-1H-pyrazolo[4,3-c]pyridine-3-carboxamide]", "values": [{"measurement": "EC50", "setting": "[1]; [5]", "result": 3, "unit": "nM"}, {"measurement": "IC50", "setting": "[2]; [8]", "result": 45, "unit": "nM"}]}, {"smiles": "CC(C)n1nc(C(=O)NCc2ccc(NC(=O)N(C)C)cc2)c2c1C(O)CN(c1ccc(C(=O)N(C)C)cn1)C2", "note": "(single isomer, unassigned) [Example 474, rel-(R or S)-5-(5-(dimethylcarbamoyl)pyridin-2-yl)-N-(4-(3,3-dimethylureido)benzyl)-7-hydroxy-1-isopropyl-4,5,6,7-tetrahydro-1H-pyrazolo[4,3-c]pyridine-3-carboxamide]", "values": [{"measurement": "EC50", "setting": "[1]; [5]", "result": 40, "unit": "nM"}, {"measurement": "IC50", "setting": "[2]; [9]", "result": 85, "unit": "nM"}]}, {"smiles": "CNC1(C)CCN(C(=O)Nc2ccc(CNC(=O)c3nn(C(C)C)c4c3CN(c3ccc(C(=O)N(C)C)cc3)C[C@@H]4C)cc2)C1", "note": "(single isomer, unassigned) [Example 714, (S)-5-(4-(dimethylcarbamoyl)phenyl)-1-isopropyl-7-methyl-N-(4-((R*)-3-methyl-3-(methylamino)pyrrolidine-1-carboxamido)benzyl)-4,5,6,7-tetrahydro-1H-pyrazolo[4,3-c]pyridine-3-carboxamide]", "values": [{"measurement": "EC50", "setting": "[1]; [5]", "result": 4, "unit": "nM"}, {"measurement": "IC50", "setting": "[2]; human whole blood, IL-13 10 ng/mL, 48 hours", "result": 28, "unit": "nM"}]}, {"smiles": "CC(C)n1nc(C(=O)NCc2ccc(-c3ccn(C)n3)cc2)c2c1[C@@H](C)CN(c1ccc(C(=O)N(C)C)cc1)C2", "note": "[Example 725, (S)-5-(4-(dimethylcarbamoyl)phenyl)-1-isopropyl-7-methyl-N-(4-(1-methyl-1H-pyrazol-3-yl)benzyl)-4,5,6,7-tetrahydro-1H-pyrazolo[4,3-c]pyridine-3-carboxamide]", "values": [{"measurement": "EC50", "setting": "[1]; [5]", "result": 177, "unit": "nM"}, {"measurement": "IC50", "setting": "[2]; [7]", "result": 4460, "unit": "nM"}]}, {"smiles": "CC(C)C1CN(c2ccc(C(=O)N(C)C)cn2)Cc2c(C(=O)NCc3ccc(NC(=O)N(C)C)cc3)nn(C)c21", "note": "(single isomer, unassigned) [Example 272, rel-(R or S)-5-(5-(dimethylcarbamoyl)pyridin-2-yl)-N-(4-(3,3-dimethylureido)benzyl)-7-isopropyl-1-methyl-4,5,6,7-tetrahydro-1H-pyrazolo[4,3-c]pyridine-3-carboxamide]", "values": [{"measurement": "EC50", "setting": "[1]; [5]", "result": 4, "unit": "nM"}, {"measurement": "IC50", "setting": "[2]; [9]", "result": 30, "unit": "nM"}]}, {"smiles": "CN(C)C(=O)Nc1ccc(CNC(=O)c2nn(C)c3c2[C@H]2CCC[C@@H](C3)N2c2ccc(C(=O)N(C)C)cn2)cc1", "note": "(single isomer, unassigned) [Example 275]", "values": [{"measurement": "EC50", "setting": "[1]; [5]", "result": 7, "unit": "nM"}, {"measurement": "IC50", "setting": "[2]; [9]", "result": 30, "unit": "nM"}]}, {"smiles": "CC(C)n1nc(C(=O)NCc2ccc(NC(=O)N3CCC(N(C)C)CC3)cc2)c2c1[C@@H](C)CN(c1ccc(C(=O)N(C)C)cn1)C2", "note": "[Example 616, (S)-N-(4-(4-(dimethylamino)piperidine-1-carboxamido)benzyl)-5-(5-(dimethylcarbamoyl)pyridin-2-yl)-1-isopropyl-7-methyl-4,5,6,7-tetrahydro-1H-pyrazolo[4,3-c]pyridine-3-carboxamide]", "values": [{"measurement": "EC50", "setting": "[1]; [5]", "result": 1, "unit": "nM"}, {"measurement": "IC50", "setting": "[2]; [8]", "result": 6, "unit": "nM"}]}, {"smiles": "CC(C)Cn1nc(C(=O)NCc2ccc(NC(=O)N(C)C)cc2)c2c1CCN(c1ccc(C(=O)N(C)C)cn1)C2", "note": "[Example 279, 5-(5-(dimethylcarbamoyl)pyridin-2-yl)-N-(4-(3,3-dimethylureido)benzyl)-1-isobutyl-4,5,6,7-tetrahydro-1H-pyrazolo[4,3-c]pyridine-3-carboxamide]", "values": [{"measurement": "EC50", "setting": "[1]; [5]", "result": 9, "unit": "nM"}, {"measurement": "IC50", "setting": "[2]; [6]", "result": 94, "unit": "nM"}]}, {"smiles": "CCC1CN(c2ccc(C(=O)N(C)C)cn2)Cc2c(C(=O)NCc3ccc(NC(=O)N(C)C)cc3)nc(C)n21", "note": "(single isomer, unassigned) [Example 336, rel-(R or S)-7-(5-(dimethylcarbamoyl)pyridin-2-yl)-N-(4-(3,3-dimethylureido)benzyl)-5-ethyl-3-methyl-5,6,7,8-tetrahydroimidazo[1,5-a]pyrazine-1-carboxamide]", "values": [{"measurement": "EC50", "setting": "[1]; [5]", "result": 14, "unit": "nM"}, {"measurement": "IC50", "setting": "[2]; [6]", "result": 41, "unit": "nM"}]}, {"smiles": "CC(C)n1nc(C(=O)NCc2ccc(NC(=O)N(C)C)cc2)c2c1C1(CC1)CN(c1ccc(C(=O)N(C)C)cn1)C2", "note": "[Example 266, 5′-(5-(dimethylcarbamoyl)pyridin-2-yl)-N-(4-(3,3-dimethylureido)benzyl)-1′-isopropyl-1′,4′,5′,6′-tetrahydrospiro[cyclopropane-1,7′-pyrazolo[4,3-c]pyridine]-3′-carboxamide]", "values": [{"measurement": "EC50", "setting": "[1]; [5]", "result": 3, "unit": "nM"}, {"measurement": "IC50", "setting": "[2]; [6]", "result": 45, "unit": "nM"}]}, {"smiles": "CC(C)n1nc(C(=O)NCc2ccc(NC(=O)N(C)C)cc2)c2c1CCN(c1ccc(N3C(=O)OCC3CO)cn1)C2", "note": "(stereo not shown) [Example 110, N-(4-(3,3-dimethylureido)benzyl)-5-(5-(4-(hydroxymethyl)-2-oxooxazolidin-3-yl)pyridin-2-yl)-1-isopropyl-4,5,6,7-tetrahydro-1H-pyrazolo[4,3-c]pyridine-3-carboxamide]", "values": [{"measurement": "EC50", "setting": "[1]; [3]", "result": 523, "unit": "nM"}, {"measurement": "IC50", "setting": "[2]; [4]", "result": 2090, "unit": "nM"}]}]}
